Ki and inhibition data for 23 molecules are collected here from ChEMBL document CHEMBL1131434, “Identification of an opioid kappa receptor subtype-selective N-substituent for (+)-(3R,4R)-dimethyl-4-(3-hydroxyphenyl)piperidine” (J Med Chem, 1998).

Assay [1] has as its target T1, Mu-type opioid receptor (Cavia porcellus, UniProt P97266). The assay is described as follows: Binding affinity determined on Opioid receptor mu 1 in Guinea pig brain membranes using radioligand [3H]DAMGO. The assay is classed as cell membranes, Membrane.
For assay [2], the target named is Kappa-type opioid receptor (Cavia porcellus) (UniProt P41144). The assay is described as follows: Inhibition against Opioid receptor kappa 1 using selective ligand [3H]U-69593. On the set-up: concentration or dose not given beside the values. As to conditions: concentration not given here.
Kappa-type opioid receptor (Cavia porcellus), sequence (P41144 whole entry): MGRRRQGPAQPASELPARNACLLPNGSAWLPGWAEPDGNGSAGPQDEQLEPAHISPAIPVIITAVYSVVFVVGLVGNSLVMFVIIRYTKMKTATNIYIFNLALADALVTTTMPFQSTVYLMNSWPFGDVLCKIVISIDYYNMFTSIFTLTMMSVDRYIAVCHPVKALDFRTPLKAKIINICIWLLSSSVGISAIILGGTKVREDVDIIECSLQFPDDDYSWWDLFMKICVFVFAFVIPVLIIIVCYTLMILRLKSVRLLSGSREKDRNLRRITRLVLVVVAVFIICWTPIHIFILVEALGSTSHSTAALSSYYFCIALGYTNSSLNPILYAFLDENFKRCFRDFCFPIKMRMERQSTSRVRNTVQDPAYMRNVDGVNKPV
In assay [3] the target is T1, Mu-type opioid receptor. Nature of the assay: Inhibition of [35S]GTP-gamma-S, binding from Opioid receptor mu 1 in Guinea pig Caudate stimulated by DAMGO. It is filed as functional. (GTPγS resists hydrolysis and so accumulates on activated G proteins.)
Assay [4] has as its target T2, Kappa-type opioid receptor (Cavia porcellus, UniProt P41144). Nature of the assay: Inhibition of [35S]GTP-gamma-S, binding from Opioid receptor kappa 1 in Guinea pig Caudate stimulated by U69,593. It is filed as functional.
In assay [5] the target is T2, Kappa-type opioid receptor. Nature of the assay: Binding affinity determined on Opioid receptor kappa 1 in Guinea pig brain membranes using radioligand [3H]U-69593. It is filed as cell membranes, Membrane.
Assay [6] addresses T1, Mu-type opioid receptor. The assay is described as follows: Binding affinity determined on Opioid receptor mu 1 in Guinea pig brain membranes using radioligand [3H]DAMGO. The assay is classed as cell membranes, Membrane.

T1 sequence (P97266 whole entry): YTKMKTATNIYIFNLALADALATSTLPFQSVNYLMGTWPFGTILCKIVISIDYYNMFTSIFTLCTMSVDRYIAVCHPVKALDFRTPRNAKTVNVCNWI
T2 sequence (P41144 whole entry): as the sequence (P41144 whole entry) above

The term Ki denotes the equilibrium dissociation constant of an inhibitor or competing ligand from its target. On Mu-type opioid receptor [1], `CC(C)C[C@@H](CN1CCC(C)(c2cccc(O)c2)C(C)C1)NC(=O)CCc1ccc(O)cc1` (some centres not stated) displayed a Ki of 398 nM.

One may read the inhibition as the drop in the measured response relative to a control, in per cent. In assay [2], `CC(C)[C@@H](CN1CC[C@@](C)(c2cccc(O)c2)[C@@H](C)C1)NC(=O)CCc1ccc(O)cc1` came in with an inhibition of 71%. Also, the Ki was determined as 7.25 nM on Mu-type opioid receptor [3], 4.7 nM in assay [4], 393 nM on Mu-type opioid receptor [1] and 6.91 nM in assay [5].

In the case of `Oc1ccc2c3c1O[C@H]1c4[nH]c5c(c4C[C@@]4(O)[C@@H](C2)N(CC2CC2)CC[C@]314)C[C@@]1(O)[C@H]2Cc3ccc(O)c4c3[C@@]1(CCN2CC1CC1)[C@H]5O4` [NORBINALTORPHIMINE], the affinity on Mu-type opioid receptor [3] corresponds to a Ki of 16.7 nM.

Turning to `CC(C)C(CN1CCC(C)(c2cccc(O)c2)C(C)C1)NC(=O)CCc1ccccc1O` (configuration not stated), the inhibition in assay [2] worked out at 25%.

`CC(C)C(CN1CCC(C)(c2cccc(O)c2)C(C)C1)NC(=O)Cc1ccc(O)cc1` (configuration not stated) came in with an inhibition in assay [2] of 6%.

Turning to `C[C@@H]1CN(C/C=C/c2ccccc2)CC[C@]1(C)c1cccc(O)c1`, the Ki at Mu-type opioid receptor [3] was 0.039 nM; in assay [4], 1.04 nM; on Mu-type opioid receptor [1] it was 0.74 nM; in assay [5], 122 nM.

In turn, `CC1CN(C[C@H](Cc2ccccc2)NC(=O)CCc2ccc(O)cc2)CCC1(C)c1cccc(O)c1` (some centres not stated) displayed a Ki on Mu-type opioid receptor [6] of 9.6 nM.

Take `CC(C)C(CN1CCC(C)(c2cccc(O)c2)C(C)C1)NC(=O)CCc1ccc(F)cc1` (configuration not stated): in assay [2], the inhibition worked out at 26%.

In the case of `CC1CN(CCNC(=O)CCc2ccc(O)cc2)CCC1(C)c1cccc(O)c1` (configuration not stated), the inhibition in assay [2] worked out at 11%.

`CC(C)C(CN1CCC(C)(c2cccc(O)c2)C(C)C1)NC(=O)CCc1ccc(O)c(O)c1` (configuration not stated) gave an inhibition in assay [2] of 31%.

Take `CC(C)C(CN1CCC(C)(c2cccc(O)c2)C(C)C1)NC(=O)CCc1cccc(O)c1` (configuration not stated): in assay [2], the inhibition came to 20%.

For the molecule `CC1CN(C[C@@H](NC(=O)CCc2ccc(O)cc2)C2CCCCC2)CCC1(C)c1cccc(O)c1` (some centres not stated), the Ki on Mu-type opioid receptor [6] was determined as 234 nM; in assay [5], 83.1 nM.

`CC1CN(CC(c2ccccc2)N(C)C(=O)CCc2ccc(O)cc2)CCC1(C)c1cccc(O)c1` (configuration not stated) had an inhibition in assay [2] of 7%.

With `CC(C)[C@H](CN1CC[C@@](C)(c2cccc(O)c2)[C@@H](C)C1)NC(=O)CCc1ccc(O)cc1`, the inhibition in assay [2] amounted to 11%.

For the molecule `CCC(C)[C@@H](CN1CCC(C)(c2cccc(O)c2)C(C)C1)NC(=O)CCc1ccc(O)cc1` (some centres not stated), the figures for the Ki (on Mu-type opioid receptor [6]; in assay [5]) were 421 nM and 8.84 nM, respectively.

Molecule `CC(CN1CCC(C)(c2cccc(O)c2)C(C)C1)N(C)C(=O)CCc1ccc(O)cc1` (configuration not stated) showed an inhibition in assay [2] of 1%.

In assay [2], `COc1ccc(CCC(=O)NC(CN2CCC(C)(c3cccc(O)c3)C(C)C2)C(C)C)cc1` (configuration not stated) yielded an inhibition of 16%.

Molecule `C[S+](C)[O-]` gave an inhibition in assay [2] of 4%.

With `CC(C)C(CN1CCC(C)(c2cccc(O)c2)C(C)C1)NC(=O)/C=C/c1ccc(O)cc1` (configuration not stated), the inhibition in assay [2] turned out to be 15%.

In turn, `COc1cc(CCC(=O)NC(CN2CCC(C)(c3cccc(O)c3)C(C)C2)C(C)C)ccc1O` (configuration not stated) came in with an inhibition in assay [2] of 42%.

For `CC1CN(CCN(C)C(=O)CCc2ccc(O)cc2)CCC1(C)c1cccc(O)c1` (configuration not stated), in assay [2], the inhibition is 0%.

In assay [2], `CC(CN1CCC(C)(c2cccc(O)c2)C(C)C1)NC(=O)CCc1ccc(O)cc1` (configuration not stated) came in with an inhibition of 20%.

In assay [2], `CC(C)[C@@H](CN1CC[C@@](C)(c2cccc(O)c2)[C@@H](C)C1)NC(=O)CCc1ccccc1` gave an inhibition of 28%.
